By IC50 is commonly meant the concentration that inhibits the measured activity by half.

The source of these data is patent US8076338B2, “Kinase modulators and methods of use” (Exelixis, Inc., priority 2004, dated 2011).

One assay addresses p70S6K (Homo sapiens, UniProt P23443). Briefly: Luciferase-coupled chemiluminescence kinase assay (ATP consumption). The assay is classed as biochemical. Particulars: Table 1; class symbols per key. How it is done:
(§1) One measure of inhibition is Ki. […] The Ki for a compound is determined from the IC50 based on three assumptions. First, only one compound molecule binds to the enzyme and there is no cooperativity. […] Third, the enzymatic rate of the enzyme-inhibitor complex is zero. The rate data (i.e. compound concentration) are fitted to the equation: […]
(§2) Luciferase-Coupled Chemiluminescence Assay Protocol
(§3) Kinase activity is measured as the percent of ATP consumed following the kinase reaction using luciferase-luciferin-coupled chemiluminescence. Reactions were conducted in 384-well white, medium binding microtiter plates (Greiner). Kinase reactions were initiated by combining test compounds, ATP and kinase in a 20 uL volume. The reaction mixture was incubated at ambient temperature for 3 hrs. For p70S6K and/or AktK, 2.5-5 nM of the enzyme was pre-incubated with compound in 20 mM Tris pH 7.5, 10 mM MgCl2, 0.03% TX-100, and 1 mM DTT for 30 minutes at room temperature. Following the kinase reaction, a 20 μL aliquot of luciferase-luciferin mix was added and the chemiluminescence signal measured using a Victor^2 plate reader (Perkin Elmer). The luciferase-luciferin mix contained 50 mM HEPES, pH 7.8, 67 mM oxalic acid (pH 7.8), 5 (or 50) mM DTT, 0.4% Triton X-100, 0.25 mg/mL coenzyme A, 63 μM AMP, 28 μg/1 mL luciferin and 40,000 units/mL luciferase. Total ATP consumption was limited to 25-60% and the IC50 values correlate well with those determined by radiometric assays.

The target of a further assay is AktK (Homo sapiens, UniProt P31749). Described as above. Particulars: Table 1; class symbols per key; read-out: AKT-1 IC50. Format: biochemical. How it is done: as §1, §2, §3
Chain of AktK (P31749 whole entry): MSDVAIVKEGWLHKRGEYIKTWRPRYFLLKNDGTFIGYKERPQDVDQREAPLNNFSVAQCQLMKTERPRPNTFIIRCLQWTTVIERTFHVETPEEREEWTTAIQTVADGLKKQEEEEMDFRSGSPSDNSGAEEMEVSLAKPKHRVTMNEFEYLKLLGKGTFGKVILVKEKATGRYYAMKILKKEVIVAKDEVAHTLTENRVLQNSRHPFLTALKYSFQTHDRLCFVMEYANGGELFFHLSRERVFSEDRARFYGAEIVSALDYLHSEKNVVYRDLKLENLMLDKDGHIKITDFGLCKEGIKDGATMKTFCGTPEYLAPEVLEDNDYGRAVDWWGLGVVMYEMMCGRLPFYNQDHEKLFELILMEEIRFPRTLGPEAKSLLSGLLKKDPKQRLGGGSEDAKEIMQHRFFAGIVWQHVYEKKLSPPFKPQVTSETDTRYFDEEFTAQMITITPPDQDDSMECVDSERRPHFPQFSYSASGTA

Chain of p70S6K (P23443 whole entry): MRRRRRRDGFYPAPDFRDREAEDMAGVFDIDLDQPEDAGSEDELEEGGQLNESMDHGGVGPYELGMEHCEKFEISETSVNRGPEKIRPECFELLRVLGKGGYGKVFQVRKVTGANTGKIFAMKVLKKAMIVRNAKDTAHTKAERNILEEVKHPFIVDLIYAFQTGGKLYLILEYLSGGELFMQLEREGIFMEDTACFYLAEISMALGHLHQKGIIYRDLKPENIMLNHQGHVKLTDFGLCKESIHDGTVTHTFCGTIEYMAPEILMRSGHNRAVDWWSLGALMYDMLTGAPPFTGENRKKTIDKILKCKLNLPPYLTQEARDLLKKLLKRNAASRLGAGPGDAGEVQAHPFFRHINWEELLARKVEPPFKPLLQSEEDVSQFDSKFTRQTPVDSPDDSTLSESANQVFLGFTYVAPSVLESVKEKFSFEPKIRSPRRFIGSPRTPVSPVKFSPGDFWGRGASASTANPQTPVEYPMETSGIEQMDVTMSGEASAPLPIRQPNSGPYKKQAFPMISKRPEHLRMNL

For the molecule `Fc1ccc(N2CCN(c3ncnc4[nH]nc(Br)c34)CC2)cc1F` [Entry 76, 3-bromo-4-[4-(3,4-difluorophenyl)piperazin-1-yl]-1H-pyrazolo[3,4-d]pyrimidine], the 50% inhibitory concentration (IC50) against p70S6K was 0.1 to 1 µM; on AktK it was at least 10 µM.
For `Clc1ccc(N2CCN(c3ncnc4[nH]nc(Br)c34)CC2)c(Cl)c1` [Entry 77, 3-bromo-4-[4-(2,4-dichlorophenyl)piperazin-1-yl]-1H-pyrazolo[3,4-d]pyrimidine], in that order: 0.1 to 1 µM and at least 10 µM.
Consider `CCc1n[nH]c2ncnc(N3CCN(c4cc(F)cc(NCCN5CCCC5)c4C)CC3)c12` [Entry 78, 3-[4-(3-ethyl-1H-pyrazolo[3,4-d]pyrimidin-4-yl)piperazin-1-yl]-5-fluoro-2-methyl-N-(2-pyrrolidin-1-ylethyl)aniline], for which the IC50 against p70S6K was below 0.1 µM; on AktK, 1 to 10 µM.
In the case of `Cc1c(NCCN2CCCC2)cc(F)cc1N1CCN(c2ncnc3[nH]nc(C(F)(F)F)c23)CC1` [Entry 79, 5-fluoro-2-methyl-N-(2-pyrrolidin-1-ylethyl)-3-{4-[3-(trifluoromethyl)-1H-pyrazolo[3,4-d]pyrimidin-4-yl]piperazin-1-yl}aniline], the values for the IC50 at p70S6K and on AktK were below 0.1 µM and 0.1 to 1 µM, respectively.
`COc1cc(OC)cc(N2CCN(c3ncnc4[nH]nc(Br)c34)CC2)c1` [Entry 80, 4-{4-[3,5-bis(methyloxy)phenyl]piperazin-1-yl}-3-bromo-1H-pyrazolo[3,4-d]pyrimidine]: the values for the IC50 on p70S6K and on AktK were below 0.1 µM and 1 to 10 µM, respectively.
`CCN1CCN(CCOc2cc(Cl)cc(N3CCN(c4ncnc5[nH]nc(C(F)(F)F)c45)CC3)c2C)CC1` [Entry 81, 4-[4-(5-chloro-3-{[2-(4-ethylpiperazin-1-yl)ethyl]oxy}-2-methylphenyl)piperazin-1-yl]-3-(trifluoromethyl)-1H-pyrazolo[3,4-d]pyrimidine]: the results for the IC50 against p70S6K and on AktK were below 0.1 µM and 0.1 to 1 µM, respectively.
Taken in the same sequence, the figures for `CCc1n[nH]c2ncnc(N3CCN(c4cc(Cl)cc(N(C)CCN(C)C)c4C)CC3)c12` [Entry 82, N-{5-chloro-3-[4-(3-ethyl-1H-pyrazolo[3,4-d]pyrimidin-4-yl)piperazin-1-yl]-2-methylphenyl}-N,N′,N′-trimethylethane-1,2-diamine] were below 0.1 µM and 1 to 10 µM.
Turning to `CCN(CC)CCCOc1cc(Cl)cc(N2CCN(c3ncnc4[nH]nc(Br)c34)CC2)c1C` [Entry 83, 3-({3-[4-(3-bromo-1H-pyrazolo[3,4-d]pyrimidin-4-yl)piperazin-1-yl]-5-chloro-2-methylphenyl}oxy)-N,N-diethylpropan-1-amine], the concentration for half-maximal inhibition (IC50) against p70S6K and on AktK was below 0.1 µM in each case.
`Cc1c(OCCCN2CCCC2)cc(Cl)cc1N1CCN(c2ncnc3[nH]nc(Br)c23)CC1` [Entry 84, 3-bromo-4-(4-{5-chloro-2-methyl-3-[(3-pyrrolidin-1-ylpropyl)oxy]phenyl}piperazin-1-yl)-1H-pyrazolo[3,4-d]pyrimidine]: the IC50 on p70S6K and at AktK was below 0.1 µM each time.
For the molecule `Cc1c(OCCCN2CCN(C)CC2)cc(Cl)cc1N1CCN(c2ncnc3[nH]nc(Br)c23)CC1` [Entry 85, 3-bromo-4-[4-(5-chloro-2-methyl-3-{[3-(4-methylpiperazin-1-yl)propyl]oxy}phenyl)piperazin-1-yl]-1H-pyrazolo[3,4-d]pyrimidine], the IC50 against p70S6K and at AktK was below 0.1 µM throughout.
As for `CCN1CCN(CCCOc2cc(Cl)cc(N3CCN(c4ncnc5[nH]nc(Br)c45)CC3)c2C)CC1` [Entry 86, 3-bromo-4-[4-(5-chloro-3-{[3-(4-ethylpiperazin-1-yl)propyl]oxy}-2-methylphenyl)piperazin-1-yl]-1H-pyrazolo[3,4-d]pyrimidine], the IC50 on p70S6K and at AktK was below 0.1 µM each time.
In the case of `CCN(CC)CCCc1cc(Cl)cc(N2CCN(c3ncnc4[nH]nc(C(F)(F)F)c34)CC2)c1C` [Entry 87, 3-(5-chloro-2-methyl-3-{4-[3-(trifluoromethyl)-1H-pyrazolo[3,4-d]pyrimidin-4-yl]piperazin-1-yl}phenyl)-N,N-diethylpropan-1-amine], the values for the IC50 against p70S6K and at AktK were below 0.1 µM and 0.1 to 1 µM, respectively.
On to `Cc1c(OCC2CCN(C)CC2)cc(Cl)cc1N1CCN(c2ncnc3[nH]nc(Br)c23)CC1` [Entry 88, 3-bromo-4-[4-(5-chloro-2-methyl-3-{[(1-methyl-piperidin-4-yl)methyl]oxy}phenyl)piperazin-1-yl]-1H-pyrazolo[3,4-d]pyrimidine], for which the IC50 against p70S6K and on AktK was below 0.1 µM in each case.
Take `Cc1c(OCCC2CCN(C)CC2)cc(Cl)cc1N1CCN(c2ncnc3[nH]nc(Br)c23)CC1` [Entry 89, 3-bromo-4-[4-(5-chloro-2-methyl-3-{[2-(1-methyl-piperidin-4-yl)ethyl]oxy}phenyl)piperazin-1-yl]-1H-pyrazolo[3,4-d]pyrimidine]: the concentration for half-maximal inhibition (IC50) against p70S6K and at AktK was below 0.1 µM each time.
With `Cc1c(OCC2CCN(C)CC2)cc(Cl)cc1N1CCN(c2ncnc3[nH]nc(C(F)(F)F)c23)CC1` [Entry 90, 4-[4-(5-chloro-2-methyl-3-{[(1-methylpiperidin-4-yl)methyl]oxy}phenyl)piperazin-1-yl]-3-(trifluoro-methyl)-1H-pyrazolo[3,4-d]pyrimidine], the IC50 against p70S6K is below 0.1 µM; at AktK it was 0.1 to 1 µM.
Taken in the same sequence, the figures for `Cc1c(OCCC2CCN(C)CC2)cc(Cl)cc1N1CCN(c2ncnc3[nH]nc(C(F)(F)F)c23)CC1` [Entry 91, 4-[4-(5-chloro-2-methyl-3-{[2-(1-methylpiperidin-4-yl)ethyl]oxy}phenyl)piperazin-1-yl]-3-(tri-fluoromethyl)-1H-pyrazolo[3,4-d]pyrimidine] were below 0.1 µM and 0.1 to 1 µM.
Turning to `Cc1c(CCCN2CCN(C)CC2)cc(Cl)cc1N1CCN(c2ncnc3[nH]nc(C(F)(F)F)c23)CC1` [Entry 92, 4-(4-{5-chloro-2-methyl-3-[3-(4-methylpiperazin-1-yl)propyl]phenyl}piperazin-1-yl)-3-(trifluoro-methyl)-1H-pyrazolo[3,4-d]pyrimidine], the half-inhibitory concentration (IC50) was below 0.1 µM at p70S6K and 0.1 to 1 µM at AktK.
`Fc1ccc(N2CCN(c3ncnc4[nH]nc(Br)c34)CC2)cc1Cl` [Entry 93, 3-bromo-4-[4-(3-chloro-4-fluorophenyl)piperazin-1-yl]-1H-pyrazolo[3,4-d]pyrimidine]: the IC50 was below 0.1 µM on p70S6K and 1 to 10 µM at AktK.
For the molecule `CC(=O)c1ccc(N2CCN(c3ncnc4[nH]nc(Br)c34)CC2)cc1` [Entry 94, 1-{4-[4-(3-bromo-1H-pyrazolo[3,4-d]pyrimidin-4-yl)piperazin-1-yl]phenyl}ethanone], the IC50 against p70S6K was in the range of 0.1 to 1 µM; at AktK, 1 to 10 µM.
On to `Clc1ccc(Cl)c(N2CCN(c3ncnc4[nH]nc(Br)c34)CC2)c1` [Entry 95, 3-bromo-4-[4-(2,5-dichlorophenyl)piperazin-1-yl]-1H-pyrazolo[3,4-d]pyrimidine], for which the IC50 was below 0.1 µM against p70S6K and at least 10 µM on AktK.
As for `Cc1ccc(N2CCN(c3ncnc4[nH]nc(Br)c34)CC2)cc1C` [Entry 96, 3-bromo-4-[4-(3,4-dimethylphenyl)piperazin-1-yl]-1H-pyrazolo[3,4-d]pyrimidine], the IC50 on p70S6K was 0.1 to 1 µM; at AktK, at least 10 µM.
Consider `O=[N+]([O-])c1ccc(N2CCN(c3ncnc4[nH]nc(Br)c34)CC2)cc1` [Entry 97, 3-bromo-4-[4-(4-nitrophenyl)piperazin-1-yl]-1H-pyrazolo[3,4-d]pyrimidine], for which the half-inhibitory concentration (IC50) was 0.1 to 1 µM on p70S6K and at least 10 µM at AktK.
Regarding `CCc1n[nH]c2ncnc(N3CCN(c4ccccc4)CC3)c12` [Entry 98, 3-ethyl-4-(4-phenylpiperazin-1-yl)-1H-pyrazolo[3,4-d]pyrimidine], the IC50 at p70S6K is 0.1 to 1 µM; on AktK, at least 10 µM.
`CCc1n[nH]c2ncnc(N3CCN(c4cccc(OC)c4)CC3)c12` [Entry 99, 3-ethyl-4-{4-[3-(methyloxy)phenyl]piperazin-1-yl}-1H-pyrazolo[3,4-d]pyrimidine]: the IC50 is 0.1 to 1 µM against p70S6K and at least 10 µM on AktK.
In the case of `Cc1c(CCCN2CCCCC2)cc(Cl)cc1N1CCN(c2ncnc3[nH]nc(C(F)(F)F)c23)CC1` [Entry 100, 4-{4-[5-chloro-2-methyl-3-(3-piperidin-1-ylpropyl)phenyl]piperazin-1-yl}-3-(trifluoromethyl)-1H-pyrazolo[3,4-d]pyrimidine], the results for the IC50 on p70S6K and at AktK were below 0.1 µM and 0.1 to 1 µM, respectively.
As for `CCc1n[nH]c2ncnc(N3CCN(c4nc(C)cnc4C)CC3)c12` [Entry 101, 4-[4-(3,6-dimethylpyrazin-2-yl)piperazin-1-yl]-3-ethyl-1H-pyrazolo[3,4-d]pyrimidine], the figures for the IC50 against p70S6K and on AktK were 0.1 to 1 µM and at least 10 µM, respectively.
On to `CCc1n[nH]c2ncnc(N3CCN(c4nccc5ccccc45)CC3)c12` [Entry 102, 1-[4-(3-ethyl-1H-pyrazolo[3,4-d]pyrimidin-4-yl)piperazin-1-yl]isoquinoline], for which the values for the half-maximal inhibitory concentration (IC50) against p70S6K and on AktK were below 0.1 µM and at least 10 µM, respectively.
